From patent publication US20210246115A1 (Bioimics AB, priority 2017, published 2021)
Where a name gives a salt, the structure may show the parent alone. Read-outs that look alike come from different tables or passages of the source.

Columns and labels:
[1] = system: Staphylococcus aureus subsp. aureus (ATCC29213); test: MIC, broth microdilution (CLSI), Staphylococcus aureus ATCC29213; type: cell-based; conditions: for MIC: Staphylococcus aureus
[2] = system: E. coli RNase P RNA, M1 RNA; test: Inhibition of bacterial RNase P activity, IC50 determination (cleavage of pATSerUG by M1 RNA); type: biochemical; conditions: NI: No inhibition
[3] = system: Escherichia coli (ATCC25922); test: MIC, broth microdilution (CLSI), Escherichia coli; conditions: for MIC: Escherichia coli
[4] = system: Staphylococcus aureus (ATCC25923); test: MIC, broth microdilution (CLSI), Staphylococcus aureus ATCC25923; conditions: Staphylococcus aureus, ATCC25923, read-out: S. aureus ATCC 25923 MIC
Procedure: Initial minimal inhibitory concentration (MIC) tests were made on two bacterial strains: • Escherichia coli (ATCC25922) • Staphylococcus aureus (ATCC25923).
MIC values were determined using the standard broth microdilution procedure based on the guidelines by the Clinical and Laboratory Standards Institute (CLSI). Briefly, the compounds were dissolved in DMSO to 10 mM. They were diluted in cation-adjusted Mueller-Hinton broth (CAMHB) to four times the highest concentration tested. A serial two-fold dilution in CAMHB was done in microdilution plates. The inoculum of bacterial strain to be tested was prepared by making a suspension of colonies from an 18 to 24 hours old plate in CAMHB. The inoculum was diluted so that, after inoculation, each well contained approximately 5×10^5 CFU/mL. To a volume of 50 μl compound in CA 3 an equal volume of inoculum was added. The tray was sealed in a plastic bag and incubated at 35° C. for 16 to 20 hours. To aid in the detection of growth the dye resazurin was added to a final concentration 0.001% and incubated at room temperature for 1 h. Reduction of resazurin, and therefore bacterial growth, was seen as a change from blue to pink.

[5] = system: Enterococcus faecalis (ATCC29212); test: MIC, broth microdilution (CLSI), Enterococcus faecalis; type: cell-based; conditions: ATCC29212, Table XIV A. Gram-positive bacteria, read-out: E. faecalis ATCC 29212 MIC
[6] = system: Pseudomonas aeruginosa (ATCC27853); test: MIC, broth microdilution (CLSI), Pseudomonas aeruginosa; type: cell-based; conditions: ATCC27853, Table XIV B. Gram-negative bacteria, read-out: P. aeruginosa ATCC 27853 MIC
[7] = system: S. aureus MRSA ATCC 33591; test: MIC, S. aureus MRSA ATCC 33591; type: cell-based; conditions: Staphylococcus aureus; Table XIV A. Gram-positive bacteria; read-out: S. aureus MRSA ATCC 33591 MIC
E. faecium ATCC 700221 = test: MIC, E. faecium ATCC 700221; type: cell-based; conditions: Enterococcus faecium, ATCC700221; Table XIV A. Gram-positive bacteria; read-out: E. faecium ATCC 700221 MIC
S. pneumoniae ATCC 49619 = test: MIC, S. pneumoniae ATCC 49619; type: cell-based; conditions: Streptococcus pneumoniae, ATCC49619; Table XIV A. Gram-positive bacteria
[8] = system: E. coli JW5503 (efflux defective); test: MIC, E. coli JW5503 (efflux defective); type: cell-based; conditions: Escherichia coli, read-out: E. coli JW5503 (efflux defective) MIC
K. pneumoniae ATCC 43816 = test: MIC, K. pneumoniae ATCC 43816; type: cell-based; conditions: Klebsiella pneumoniae, ATCC43816; Table XIV B. Gram-negative bacteria
H. influenzae ATCC 49247 = test: MIC, H. influenzae ATCC 49247; type: cell-based; conditions: Haemophilus influenzae, ATCC49247; Table XIV B. Gram-negative bacteria
A. baumannii ATCC 17978 = test: MIC, A. baumannii ATCC 17978; type: cell-based; conditions: Acinetobacter baumannii, ATCC17978; Table XIV B. Gram-negative bacteria
[9] = system: P. aeruginosa NTUH974 (MDR); test: MIC, P. aeruginosa NTUH974 (MDR); type: cell-based; conditions: Pseudomonas aeruginosa; Table XIV B. Gram-negative bacteria; read-out: P. aeruginosa NTUH974 (MDR) MIC
[10] = system: N. gonorrhoeae ATCC 700825; test: MIC, N. gonorrhoeae ATCC 700825; type: cell-based; conditions: Neisseria gonorrhoeae, ATCC700825; Table XIV B. Gram-negative bacteria
[11] = ATCC29213, Table XIII, read-out: S. aureus ATCC 29213 MIC
[12] = ATCC25922, read-out: E. coli ATCC 25922 MIC, Table XIII
[13] = ATCC29213, read-out: S. aureus ATCC 29213 MIC, Table XIII

Cc1cccc(C(CC(=O)NC2CCNCC2)c2cn(CC3CCCCC3)c3ccc(C(=O)O)cc23)c1.Cl (stereo not shown) [Compound 297, 1-(cyclohexylmethyl)-3-(3-oxo-3-(piperidin-4-ylamino)-1-(m-tolyl)propyl)-1H-indole-5-carboxylic acid hydrochloride salt]
MIC [1, 11]: 32 µg/mL | IC50 [2]: 38 µM | MIC [3, 12]: > 128 µg/mL | MIC [4]: 34 µg/mL

NC1CCC(NCCC(c2ccc(F)c(F)c2)c2cn(CC3CCCCC3)c3ccccc23)CC1 [Compound 161, (1S,4S)-N1-(3-(1-(cyclohexylmethyl)-1H-indol-3-yl)-3-(3,4-difluorophenyl)propyl) cyclohexane-1,4-diamine hydrochloride salt]
MIC [1, 11]: 2 µg/mL | IC50 [2]: 12 µM | MIC [3, 12]: 2 µg/mL | MIC [4]: 2 µg/mL

Cc1cccc(C(CCNCC2CNCCO2)c2cn(CC3CCCCC3)c3ccccc23)c1 (stereo not shown) [Compound 288, 3-(1-(cyclohexylmethyl)-1H-indol-3-yl)-N-(morpholin-2-ylmethyl)-3-(m-tolyl)propan-1-amine hydrochloride salt]
MIC [1, 13]: 128 µg/mL | IC50 [2]: 52 µM | MIC [3, 12]: 4 µg/mL | MIC [4]: 4 µg/mL

Cc1cccc(C(CCN[C@H]2CC[C@H](N)CC2)c2cn(CC3CCCC3)c3ccccc23)c1 (stereo partly drawn) [Compound 164, (1R,4R)-N1-(3-(1-(cyclopentylmethyl)-1H-indol-3-yl)-3-(m-tolyl)propyl)cyclohexane-1,4-diamine hydrochloride salt]
MIC [1, 11]: 8 µg/mL | IC50 [2]: 9.6 µM | MIC [3, 12]: 8 µg/mL | MIC [4]: 4 µg/mL

Cl.c1ccc(-c2ccc(CNCCc3c[nH]c4ccccc34)cc2)cc1 [Compound 24, N-([1,1′-biphenyl]-4-ylmethyl)-2-(1H-indol-3-yl)ethan-1-amine hydrochloride salt]
MIC [1, 11]: 6 µg/mL | MIC [3, 12]: 46 µg/mL | MIC [4]: 6 µg/mL

Cc1cccc(C(CCNCC2CNCCO2)c2cn(CC3CCCCC3)c3ccc(Br)cc23)c1.Cl (stereo not shown) [Compound 289, 3-(5-bromo-1-(cyclohexylmethyl)-1H-indol-3-yl)-N-(morpholin-2-ylmethyl)-3-(m-tolyl)propan-1-amine hydrochloride salt]
MIC [1, 11]: 64 µg/mL | IC50 [2]: 15 µM | MIC [3, 12]: 16 µg/mL | MIC [4]: 2 µg/mL

Cc1cccc(C(CCNC2CCNCC2)c2cn(CC3CCOCC3)c3ccc(Br)cc23)c1 (stereo not shown) [Compound 293, N-(3-(5-bromo-1-((tetrahydro-2H-pyran-4-yl)methyl)-1H-indol-3-yl)-3-(m-tolyl)propyl) piperidin-4-amine hydrochloride salt]
MIC [1, 13]: 8 µg/mL | IC50 [2]: 70 µM | MIC [3, 12]: 4 µg/mL | MIC [4]: 5 µg/mL

Cc1cccc(C(CC(=O)NC2CCNCC2)c2cn(CCC3CCCCC3)c3ccccc23)c1.Cl (stereo not shown) [Compound 109, 3-(1-(2-cyclohexylethyl)-1H-indol-3-yl)-N-(piperidin-4-yl)-3-(m-tolyl)propanamide hydrochloride salt]
MIC [1, 11]: 4 µg/mL | IC50 [2]: 3.7 µM | MIC [3, 12]: 128 µg/mL | MIC [4]: 4 µg/mL

Cl.O=C(CCC1C(=O)N(CC2CCCCC2)c2ccccc21)NC1CCNCC1 (stereo not shown) [Compound 275, 3-(1-(cyclohexylmethyl)-2-oxoindolin-3-yl)-N-(piperidin-4-yl) propanamide hydrochloride salt]
MIC [1, 11]: > 128 µg/mL | IC50 [2]: 79 µM | MIC [3, 12]: > 128 µg/mL | MIC [4]: > 512 µg/mL

Cc1cccc(-c2ccc3c(c2)c(C2CCCC(NC4CCNCC4)C2)cn3C2CCCCC2)c1 (stereo not shown) [Compound 396, N-(3-(1-cyclohexyl-5-(m-tolyl)-1H-indol-3-yl)cyclohexyl)piperidin-4-amine hydrochloride salt]
MIC [1, 13]: 2 µg/mL | IC50 [2]: 12 µM | MIC [3, 12]: 4 µg/mL

Cc1cccc(C(CCNCCCN)c2cn(C3CCCCC3)c3ccc(-c4ccncc4)cc23)c1.Cl.Cl (stereo not shown) [Compound 412, N1-(3-(1-cyclohexyl-5-(pyridin-4-yl)-1H-indol-3-yl)-3-(m-tolyl)propyl) propane-1,3-diamine hydrochloride salt]
MIC [1, 11]: 2 µg/mL | IC50 [2]: 18 µM | MIC [3, 12]: 4 µg/mL

Cc1cccc(C(CCNC2CCC(N)CC2)c2cn(C3CCCCC3)c3ccccc23)c1 [Compound 395, (1S,4S)- -N1-(3-(1-cyclohexyl-1H-indol-3-yl)-3-(m-tolyl)propyl) cyclohexane-1,4-diamine hydrochloride salt]
S. aureus ATCC 29213 MIC ([1]; Table XIII, hydrochloride salt): 1 µg/mL | IC50 ([2]; hydrochloride salt): 8.2 µM | E. coli ATCC 25922 MIC ([3]; Table XIII, hydrochloride salt): 8 µg/mL

N#Cc1ccc2c(c1)c(C(CCNC1CCNC1)C1CCCCC1)cn2C1CCCCC1 (stereo not shown) [Compound 413, 1-cyclohexyl-3-(1-cyclohexyl-3-(pyrrolidin-3-ylamino)propyl)-1H-indole-5-carbonitrile hydrochloride salt]
MIC [1, 13]: 4 µg/mL | IC50 [2]: 20 µM | MIC [3, 12]: 8 µg/mL

Cc1cccc(C(CCNC2CCC(N)CC2)c2cn(CC3CCCCC3)c3ccc([N+](=O)[O-])cc23)c1 [Compound 425, (1S,4S)-N1-(3-(1-(cyclohexylmethyl)-5-nitro-1H-indol-3-yl)-3-(m-tolyl)propyl) cyclohexane-1,4-diamine hydrochloride salt]
MIC [1, 11]: 2 µg/mL | IC50 [2]: 12 µM | MIC [3, 12]: 8 µg/mL

Cc1cccc(C(CCNC2CCNCC2)c2cn(CC3CCCCC3)c3ccc([N+](=O)[O-])cc23)c1 (stereo not shown) [Compound 428, N-(3-(1-(cyclohexylmethyl)-5-nitro-1H-indol-3-yl)-3-(m-tolyl)propyl)piperidin-4-amine hydrochloride salt]
MIC [1, 13]: 4 µg/mL | IC50 [2]: 15 µM | MIC [3, 12]: 32 µg/mL

Cl.N[C@H]1CC[C@H](NC(=O)CC(c2cncc3ccccc23)c2cn(CC3CCCCC3)c3ccccc23)CC1 (stereo partly drawn) [Compound 191, N-((1R,4R)-4-aminocyclohexyl)-3-(1-(cyclohexylmethyl)-1H-indol-3-yl)-3-(isoquinolin-4-yl)propanamide hydrochloride salt]
MIC [1, 11]: 8 µg/mL | IC50 [2]: 7 µM | MIC [3, 12]: 8 µg/mL | MIC [4]: 5 µg/mL

Cl.Cl.NCCCNCCCc1cn(C2CCCCC2)c2ccc(C3CCCCC3)cc12 [Compound 399, N1-(3-(1,5-dicyclohexyl-1H-indol-3-yl)propyl)propane-1,3-diamine hydrochloride salt]
MIC [1, 11]: 4 µg/mL | IC50 [2]: 6.3 µM | MIC [3, 12]: 4 µg/mL

Cl.Cl.N#Cc1ccc2c(C(CCNCCCN)c3cccc(OC(F)(F)F)c3)cn(C3CCCCC3)c2c1 (stereo not shown) [Compound 410, 3-(3-((3-aminopropyl)amino)-1-(3-(trifluoromethoxy)phenyl)propyl)-1-cyclohexyl-1H-indole-6-carbonitrile salt]
MIC [1, 11]: 4 µg/mL | IC50 [2]: 10 µM | MIC [3, 12]: 4 µg/mL

Cc1cccc(C(CCNCCCN)c2cn(C3CCCCC3)c3ccc(C#N)cc23)c1.Cl.Cl (stereo not shown) [Compound 379, 3-(3-((3-aminopropyl)amino)-1-(m-tolyl)propyl)-1-cyclohexyl-1H-indole-5-carbonitrile hydrochloride salt]
MIC [1, 11]: 8 µg/mL | IC50 [2]: 34 µM | MIC [3, 12]: 8 µg/mL

Cl.Cl.NCCCNCCC(c1cccc(Cl)c1)c1cn(C2CCCCC2)c2ccccc12 (stereo not shown) [Compound 356, N1-(3-(3-chlorophenyl)-3-(1-cyclohexyl-1H-indol-3-yl)propyl) propane-1,3-diamine hydrochloride salt]
MIC [1, 11]: 4 µg/mL | IC50 [2]: 37 µM | MIC [3, 12]: 4 µg/mL

Cc1cccc(C(CCNC2CCCCC2)c2cn(CC3CCCCC3)c3ccccc23)c1.Cl (stereo not shown) [Compound 215, N-(3-(1-(cyclohexylmethyl)-1H-indol-3-yl)-3-(m-tolyl)propyl) cyclohexanamine hydrochloride salt]
MIC [5]: 2 µg/mL | MIC [6]: > 128 µg/mL | MIC [1, 11]: 2 µg/mL | MIC ([1]; ATCC29213, Table XIV A. Gram-positive bacteria, read-out: S. aureus ATCC 29213 MIC): 2 µg/mL | MIC [7]: > 128 µg/mL | MIC (E. faecium ATCC 700221): 1 µg/mL | MIC (S. pneumoniae ATCC 49619): 2 µg/mL | MIC [8]: 64 µg/mL | MIC (K. pneumoniae ATCC 43816): > 128 µg/mL | MIC (H. influenzae ATCC 49247): 16 µg/mL | MIC (A. baumannii ATCC 17978): > 128 µg/mL | MIC [9]: > 128 µg/mL | MIC [10]: 1 µg/mL | MIC [3, 12]: > 128 µg/mL | MIC ([3]; ATCC25922, read-out: E. coli ATCC 25922 MIC, Table XIV B. Gram-negative bacteria): > 128 µg/mL | MIC [4]: 2 µg/mL
